Laboratory results reported in patent publication US20250326744A1, “PIPERAZINE DERIVATIVE OR SALT THEREOF, AND PHARMACEUTICAL COMPOSITION” (priority 2022, published 2025).
Structures can show the parent of a compound that is named as a salt.

Columns and labels:
[1] = tested on: mexB (EC) strain; assay: Efflux ability inhibition effect on drug efflux pump MexB (Test Examples 1 and 3): proliferation (OD595) of mexB (EC) strain with EM or LVFX at 1/4 MIC, EC75; format: cell-based, Escherichia coli; settings: for EC75, mexB (EC) strain, EM: combined with EM at 1/4 MIC; for EC75, mexB (EC) strain, LVFX: combined with LVFX at 1/4 MIC
Method: The efflux ability inhibition effect of the test compound on the drug efflux pump was evaluated using the bacterial proliferative ability in the presence of EM or LVFX as an index.
EM is a macrolide antibacterial agent and is a drug that is discharged outside the bacteria by MexB and MexY LVFX is a quinolone antibacterial agent and is a drug that is discharged outside the bacteria by MexB and MexY In a case where the test compound has an efflux ability inhibitory ability against the drug efflux pump, the proliferation of bacteria is suppressed by the combined use of EM or LVFX and the test compound, as compared with the case where EM or LVFX is used alone.
A mutant strain (hereinafter, referred to as an “mexB (EC) strain”) obtained by transferring the genes of the main multidrug efflux system MexAB-OprM of Pseudomonas aeruginosa described in Nature, 2013, Vol. 500, pp. 102 to 106 as a plasmid into Escherichia coli strains in which the acrB and tolC genes of the multidrug efflux system AcrAB-TolC were deleted as described in Journal of Infection and Chemotherapy 2008, Vol. 14, pp. 23 to 29, and a gene transfer strain (hereinafter, referred to as an “mexY (EC) strain”) of another main multidrug efflux system MexXY-OprM of Pseudomonas aeruginosa were used for the evaluation of test compounds.
In the mexB (EC) strain, an expression level of MexB of the drug efflux pump is accelerated, and in the mexY (EC) strain, an expression level of MexY of the drug efflux pump is accelerated.
For culturing each Escherichia coli strain, a 96-well plate (amount of culture medium per well: 100 μL) was used and Luria-Bertani broth (LB) culture medium was used. The inoculation amount of the bacteria was set to 10^4 to 5 CFU/well.
The mexB (EC) strain and the mexY (EC) strain were cultured for 16 to 20 hours in a culture medium to which EM or LVFX and test compounds at various concentrations (0 to 800 μM) were added, and the proliferation of the bacterial strains was evaluated by optical turbidity at 595 nm (OD595). The concentration of the antibacterial agents (EM and LVFX) in the culture medium were each set to ¼ of the minimum inhibitory concentration (MIC) (hereinafter, referred to as ¼ MIC) of the single antibacterial agent.
The proliferation of bacteria in a case where the antibacterial agent was added at the concentration of ¼ MIC in a case where the test compound was not added was measured, and compared with the proliferation of bacteria in a case where the test compound was contained, and the lowest concentration of the test compound at which the proliferation was inhibited by 75% or more was defined as the drug efflux pump inhibitory ability of the test compound as 75% inhibitory effect concentration (EC75).
The drug efflux pump inhibitory ability of each test compound in a case of being used in combination with the antibacterial agent against the mexB (EC) strain and the mexY (EC) strain was evaluated as follows according to the value of EC75. • S: EC75≤[…] • A: 12.5 μM<EC75≤25 μM • B: 25 μM<EC75≤100 μM • C: […]
In the same manner as in Test Example 1, the efflux ability inhibition effect of the test compound on the drug efflux pump was evaluated using the bacterial proliferation ability in the presence of EM or LVFX as an index.

[2] = tested on: mexB (PA) strain; assay: Combinational effect with antibacterial agent against Pseudomonas aeruginosa (Test Examples 2 and 4): mexB (PA) strain with LVFX, TC or AZT at 1/4 MIC, EC99; format: cell-based; settings: mexB (PA) strain, Test Example 4; for EC99, combinational effect with AZT, mexB (PA): combined with AZT at 1/4 MIC; for EC99, combinational effect with LVFX, mexB (PA): combined with LVFX at 1/4 MIC; for EC99, combinational effect with TC, mexB (PA): combined with TC at 1/4 MIC
In short: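 EC99 denotes the minimum test-compound concentration (range 0–800 μM) that suppresses ≥99% of growth, measured by OD595, when combined with ¼ MIC levofloxacin (LVFX), tetracycline or aztreonam. The efflux-pump mutant mexB (PA), expressing mainly MexAB-OprM, was inoculated at 10^4–5 CFU/well in CAMHB for 16–20 h.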

[3] = tested on: S-3769 strain; assay: Combinational effect with antibacterial agent against Pseudomonas aeruginosa (Test Examples 2 and 4): S-3769 strain with AMK or GM at 1/4 MIC, EC99; format: cell-based; settings: S-3769 strain, Test Example 4; for EC99, combinational effect with AMK, S-3769 strain: combined with AMK at 1/4 MIC; for EC99, combinational effect with GM, S-3769 strain: combined with GM at 1/4 MIC
In short: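 EC99, the lowest test-compound concentration inhibiting growth by ≥99% (OD595), was measured with aminoglycoside AMK or GM held at ¼ MIC. Strain S-3769, a MexY-overexpressing clinical isolate, was cultured in CAMHB at 10^4 to 5 CFU/well for 16–20 h; compound range 0–800 μM.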

[4] = Table 51, Test Example 1, 16 to 20 hours culture, OD595
[5] = Table 53, Test Example 3, same manner as Test Example 1

## O=C(CN1CCN(CCc2ccccc2)CC1)N1CCN(Cc2ccccc2[N+](=O)[O-])CC1 [Example 235, Hydrochloride of 1-(4-(2-nitrobenzyl)piperazin-1-yl)-2-(4-phenethylpiperazin-1-yl) ethan-1-one]
[1]; [4]
  EC75, mexB (EC) strain, EM: B (25 μM<EC75≤100 μM)
  EC75, mexB (EC) strain, LVFX: B (25 μM<EC75≤100 μM)

## O=C(CN1CCN(CCc2ccccc2)CC1)N1CCN(Cc2sccc2Cl)CC1 [Example 251, Hydrochloride of 1-(4-((3-chlorothiophen-2-yl)methyl)piperazin-1-yl)-2-(4-phenethylpiperazin-1-yl)ethan-1-one]
[1]; [4]
  EC75, mexB (EC) strain, EM: A (12.5 μM<EC75≤25 μM)
  EC75, mexB (EC) strain, LVFX: B (25 μM<EC75≤100 μM)

## O=C(CN1CCN(CCc2ccccc2)CC1)N1CCN(Cc2ccccc2F)CC1 [Example 259, hydrochloride of 1-(4-(2-fluorobenzyl)piperazin-1-yl)-2-(4-phenethylpiperazin-1-yl)ethan-1-one]
[1]; [4]
  EC75, mexB (EC) strain, EM: A (12.5 μM<EC75≤25 μM)

## O=C(CN1CCN(CCc2ccccc2)CC1)N1CCN(Cc2ccccc2CO)CC1 [Example 262, Hydrochloride of 1-(4-(2-(hydroxymethyl)benzyl)piperazin-1-yl)-2-(4-phenethylpiperazin-1-yl)etban-1-one]
[1]; [4]
  EC75, mexB (EC) strain, EM: A (12.5 μM<EC75≤25 μM)
  EC75, mexB (EC) strain, LVFX: B (25 μM<EC75≤100 μM)

## COCc1ccccc1CN1CCN(C(=O)CN2CCN(CCc3ccccc3)CC2)CC1 [Example 263, Hydrochloride of 1-(4-(2-(methoxymethyl)benzyl)piperazin-1-yl)-2-(4-phenethylpiperazin-1-yl)ethan-1-one]
[1]; [4]
  EC75, mexB (EC) strain, EM: A (12.5 μM<EC75≤25 μM)
  EC75, mexB (EC) strain, LVFX: A (12.5 μM<EC75≤25 μM)

## COc1cccc(OCCN)c1CN1CCN(C(=O)CN2CCN(CCc3ccccc3)CC2)CC1 [Example 266, hydrochloride of 1-(4-(2-(2-aminoethoxy)-6-methoxybenzyl)piperazin-1-yl)-2-(4-phenethylpiperazin-1-yl)ethan-1-one]
[1]; [4]
  EC75, mexB (EC) strain, LVFX: B (25 μM<EC75≤100 μM)

## COc1cccc(F)c1C(C)N1CCN(C(=O)CN2CCN(CCc3ccccc3)CC2)CC1.Cl (stereo not drawn) [Example 269, hydrochloride of 1-(4-(1-(2-fluoro-6-methoxyphenyl)ethyl)piperazin-1-yl)-2-(4-phenethylpiperazin-1-yl)ethan-1-one]
[1]; [4]
  EC75, mexB (EC) strain, EM: A (12.5 μM<EC75≤25 μM)
  EC75, mexB (EC) strain, LVFX: A (12.5 μM<EC75≤25 μM)

## COc1ccccc1CN1CCN(C(=O)CN2CCN(CCc3ccccn3)CC2)CC1 [Example 288, 1-(4-(2-Methoxybenzyl)piperazin-1-yl)-2-(4-(2-(pyridin-2-yl)ethyl)piperazin-1-yl)ethan-1-one and hydrochloride thereof]
[1]; [4]
  EC75, mexB (EC) strain, EM: B (25 μM<EC75≤100 μM)
  EC75, mexB (EC) strain, LVFX: B (25 μM<EC75≤100 μM)

## COc1ccccc1CN1CCN(C(=O)CN2CCN(CCc3cncs3)CC2)CC1 [Example 294, 1-(4-(2-Methoxybenzyl)piperazin-1-yl)-2-(4-(2-(thiazol-5-yl)ethyl)piperazin-1-yl)ethan-1-one and hydrochloride thereof]
[1]; [4]
  EC75, mexB (EC) strain, LVFX: A (12.5 μM<EC75≤25 μM)

## COc1ccccc1CN1CCN(C(=O)CC2CCN(CCc3ccccc3)CC2)CC1 [Example 304, hydrochloride of 1-(4-(2-methoxybenzyl)piperazin-1-yl)-2-(1-phenethylpiperidin-4-yl)ethan-1-one]
[1]; [4]
  EC75, mexB (EC) strain, EM: A (12.5 μM<EC75≤25 μM)
  EC75, mexB (EC) strain, LVFX: B (25 μM<EC75≤100 μM)

## COc1ccccc1CN1CCN(C(=O)CN2CCC(CCc3ccccc3)(NC(C)=O)CC2)CC1 [Example 415, hydrochloride of N-(1-(2-(4-(2-methoxybenzyl)piperazin-1-yl)-2-oxoethyl)-4-phenethylpiperidin-4-yl)acetamide]
[1]; [4]
  EC75, mexB (EC) strain, LVFX: A (12.5 μM<EC75≤25 μM)

## CCOc1cccc(F)c1CN1CCN(C(=O)[C@H](N)C2CCN(CCc3cc(Cl)ccc3-c3cn(C)nc3C)CC2)CC1 [Example 500, Hydrobromide of (R)-2-amino-2-(1-(5-chloro-2-(1,3-dimethyl-1H-pyrazol-4-yl)phenethyl)piperidin-4-yl)-1-(4-(2-ethoxy-6-fluorobenzyl)piperazin-1-yl)ethan-1-one]
[2]
  EC99, combinational effect with AZT, mexB (PA): C (100 μM<EC99)
  EC99, combinational effect with LVFX, mexB (PA): C (100 μM<EC99)
  EC99, combinational effect with TC, mexB (PA): C (100 μM<EC99)
[1]; [5]
  EC75, mexB (EC) strain, EM: A (12.5 μM<EC75≤25 μM)
[3]
  EC99, combinational effect with AMK, S-3769 strain: A (12.5 μM<EC99≤25 μM)
  EC99, combinational effect with GM, S-3769 strain: A (12.5 μM<EC99≤25 μM)

## CCOc1cccnc1CN1CCN(C(=O)[C@H](N)C2CCN(CCc3cc(Cl)ccc3-c3ccccc3)CC2)CC1 [Example 508, Hydrobromide of (R)-2-amino-2-(1-(2-(4-chloro-[1,1-biphenyl]-2-yl)ethyl)piperidin-4-yl)-1-(4-((3-ethoxypyridin-2-yl)methyl)piperazin-1-yl)ethan-1-one]
[2]
  EC99, combinational effect with AZT, mexB (PA): B (25 μM<EC99≤100 μM)
  EC99, combinational effect with LVFX, mexB (PA): C (100 μM<EC99)
  EC99, combinational effect with TC, mexB (PA): B (25 μM<EC99≤100 μM)
[1]; [5]
  EC75, mexB (EC) strain, EM: A (12.5 μM<EC75≤25 μM)
[3]
  EC99, combinational effect with AMK, S-3769 strain: S (EC99≤12.5 μM)
  EC99, combinational effect with GM, S-3769 strain: A (12.5 μM<EC99≤25 μM)

## N[C@@H](C(=O)N1CCN(Cc2ncc3ccccn23)CC1)C1CCN(CCc2cc(Cl)ccc2-c2ccccc2)CC1 [Example 518, Hydrobromide of (R)-2-amino-2-(1-(2-(4-chloro-[1,1-biphenyl]-2-yl)ethyl)piperidin-4-yl)-1-(4-(imidazo[1,5-a]pyridin-3-ylmethyl)piperazin-1-yl)ethan-1-one]
[2]
  EC99, combinational effect with AZT, mexB (PA): C (100 μM<EC99)
  EC99, combinational effect with LVFX, mexB (PA): C (100 μM<EC99)
  EC99, combinational effect with TC, mexB (PA): C (100 μM<EC99)
[1]; [5]
  EC75, mexB (EC) strain, LVFX: A (12.5 μM<EC75≤25 μM)
[3]
  EC99, combinational effect with AMK, S-3769 strain: B (25 μM<EC99≤100 μM)
  EC99, combinational effect with GM, S-3769 strain: B (25 μM<EC99≤100 μM)

## Cn1ccnc1CN1CCN(C(=O)[C@H](N)C2CCN(CCc3cc(Cl)ccc3-c3ccccc3)CC2)CC1 [Example 525, Hydrobromide of (R)-2-amino-2-(1-(2-(4-chloro-[1,1-biphenyl]-2-yl)ethyl)piperidin-4-yl)-1-(4-((1-methyl-1H-imidazol-2-yl)methyl)piperazin-1-yl)ethan-1-one]
[2]
  EC99, combinational effect with AZT, mexB (PA): C (100 μM<EC99)
  EC99, combinational effect with LVFX, mexB (PA): C (100 μM<EC99)
  EC99, combinational effect with TC, mexB (PA): C (100 μM<EC99)
[1]; [5]
  EC75, mexB (EC) strain, LVFX: B (25 μM<EC75≤100 μM)
[3]
  EC99, combinational effect with AMK, S-3769 strain: C (100 μM<EC99)
  EC99, combinational effect with GM, S-3769 strain: C (100 μM<EC99)
